According to paper PMC8402619 (Viruses, 2021):

Legend:
[1] = tested on: CYP2B6; assay: CYP induction in cryopreserved human hepatocytes; details: for mRNA Mean Fold Change ± SD CYP2B6: 48 h, n = 3 donors, vs DMSO vehicle
[2] = target: CYP2D6 (Homo sapiens, UniProt P10635); assay: Time-dependent CYP inhibition in pooled human liver microsomes; type: in vitro ADME
[3] = Renal clearance after 1 mg/kg intravenous, monkey; type: in vivo, rhesus monkeys; details: rhesus monkey, 1 mg/kg intravenously
[4] = target: T1, OATP1B3 (Homo sapiens, UniProt Q9NPD5); assay: Inhibition of transporter-mediated probe uptake in HEK293-OATP1B3 cells; type: in vitro ADME
T1 construct: host or cells: HEK293
T1 sequence (Q9NPD5 1-702): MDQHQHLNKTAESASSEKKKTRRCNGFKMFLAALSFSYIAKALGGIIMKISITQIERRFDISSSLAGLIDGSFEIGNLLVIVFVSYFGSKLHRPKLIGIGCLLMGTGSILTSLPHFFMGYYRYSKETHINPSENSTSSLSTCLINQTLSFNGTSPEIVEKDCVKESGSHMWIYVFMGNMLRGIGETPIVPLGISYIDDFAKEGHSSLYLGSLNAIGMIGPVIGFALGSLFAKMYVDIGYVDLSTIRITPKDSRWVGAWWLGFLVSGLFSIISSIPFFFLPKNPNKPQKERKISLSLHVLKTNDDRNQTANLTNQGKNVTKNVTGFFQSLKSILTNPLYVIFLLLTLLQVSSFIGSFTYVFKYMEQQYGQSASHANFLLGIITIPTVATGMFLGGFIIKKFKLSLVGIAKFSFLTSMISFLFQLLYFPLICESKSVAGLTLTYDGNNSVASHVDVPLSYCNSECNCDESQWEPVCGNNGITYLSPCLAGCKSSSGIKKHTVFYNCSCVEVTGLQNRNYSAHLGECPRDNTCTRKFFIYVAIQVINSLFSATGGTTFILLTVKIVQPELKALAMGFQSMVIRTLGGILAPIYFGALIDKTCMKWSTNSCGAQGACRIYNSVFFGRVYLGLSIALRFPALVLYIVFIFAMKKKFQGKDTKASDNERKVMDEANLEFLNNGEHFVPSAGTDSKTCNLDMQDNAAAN

Sequence of CYP2D6 (P10635 whole entry): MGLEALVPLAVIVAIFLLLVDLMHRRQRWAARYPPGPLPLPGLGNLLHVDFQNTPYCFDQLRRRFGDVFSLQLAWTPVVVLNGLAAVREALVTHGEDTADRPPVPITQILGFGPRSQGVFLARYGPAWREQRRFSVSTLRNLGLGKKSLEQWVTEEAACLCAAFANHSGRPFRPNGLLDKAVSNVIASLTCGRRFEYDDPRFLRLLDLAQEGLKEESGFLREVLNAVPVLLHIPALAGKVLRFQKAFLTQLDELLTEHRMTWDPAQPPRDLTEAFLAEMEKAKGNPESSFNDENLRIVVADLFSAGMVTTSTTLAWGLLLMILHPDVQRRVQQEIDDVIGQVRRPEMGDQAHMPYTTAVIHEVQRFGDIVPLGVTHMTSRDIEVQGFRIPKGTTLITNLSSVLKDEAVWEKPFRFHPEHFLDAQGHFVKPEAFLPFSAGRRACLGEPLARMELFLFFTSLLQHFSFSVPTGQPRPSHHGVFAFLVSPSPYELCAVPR

Compound: C#C[C@]1(CO)O[C@@H](n2cnc3c(N)nc(F)nc32)C[C@@H]1O [Islatravir, 4′-Ethynyl-2-fluoro-2′-deoxyadenosine]
- mRNA Mean Fold Change ± SD CYP2B6 ([1]; 0.1 µM): 0.5 ± 0.1
- mRNA Mean Fold Change ± SD CYP2B6 ([1]; 0.5 µM): 0.5 ± 0.2
- mRNA Mean Fold Change ± SD CYP2B6 ([1]; 1 µM): 0.7 ± 0.2
- mRNA Mean Fold Change ± SD CYP2B6 ([1]; 5 µM): 0.7 ± 0.1
- mRNA Mean Fold Change ± SD CYP2B6 ([1]; 10 µM): 0.9 ± 0.3
- mRNA Mean Fold Change ± SD CYP2B6 ([1]; 20 µM): 0.4 ± 0.3
- mRNA response relative to positive control ([1]; CYP2B6, each tested concentration 0.1-20 µM): less than 20%
- enzyme activity, fold of solvent control ([1]; CYP2B6 bupropion hydroxylation, all islatravir concentrations): ≤ 1.1 fold
- time-dependent inhibition ([2]; CYP2D6, pre-incubation of 10 and 50 µM for up to 30 min): no time-dependent inhibition
- DDI Potential ([2]; CYP2D6 time dependent inhibition): Low risk ^h
- IC50 ([2]; time dependent, CYP2D6, read-out: Islatravir IC50): > 50 µM
- CL renal ([3]; plasma and urine, iv, urine 0-24 h): 8.7 mL/min/kg
- Renal Excretion (% Total Plasma Clearance) [3]: 51%
- IC50 ([4]; OATP1B3-mediated uptake of sulfobromophthalein, read-out: Islatravir IC50): > 300 µM
- Maximum Unbound Inlet Concentration (Iin,max,u) to IC50 Ratio ([4]; OATP1B3, 60 mg dose): <0.035
- DDI Potential ([4]; OATP1B3 inhibition, FDA, EMA, PMDA guidance): Low risk
